In patent US20240327417A1, “HETEROCYCLIC COMPOUNDS” (BeiGene Switzerland GmbH, priority 2021, published 2024):

Columns and labels:
[1] = biological target: T1, Full length DGKζ (in-house protein M1-V929) (Homo sapiens, UniProt Q13574); assay: Biochemical DGK IC50 assay (ADP-Glo, lipid micelle substrate), DGKζ; settings: 0.5 nM enzyme, 140 μM ATP, 80 μM DAG, 1 hour preincubation, 1 hour reaction, room temperature, read-out: IC50s for DGKζ
T1 construct: His (N); TEV cleavage site (N); made in house; host or cells: Sf9 insect cells (baculovirus, Bac-to-Bac)
T1 sequence (Q13574 1-929 isoform Q13574-4): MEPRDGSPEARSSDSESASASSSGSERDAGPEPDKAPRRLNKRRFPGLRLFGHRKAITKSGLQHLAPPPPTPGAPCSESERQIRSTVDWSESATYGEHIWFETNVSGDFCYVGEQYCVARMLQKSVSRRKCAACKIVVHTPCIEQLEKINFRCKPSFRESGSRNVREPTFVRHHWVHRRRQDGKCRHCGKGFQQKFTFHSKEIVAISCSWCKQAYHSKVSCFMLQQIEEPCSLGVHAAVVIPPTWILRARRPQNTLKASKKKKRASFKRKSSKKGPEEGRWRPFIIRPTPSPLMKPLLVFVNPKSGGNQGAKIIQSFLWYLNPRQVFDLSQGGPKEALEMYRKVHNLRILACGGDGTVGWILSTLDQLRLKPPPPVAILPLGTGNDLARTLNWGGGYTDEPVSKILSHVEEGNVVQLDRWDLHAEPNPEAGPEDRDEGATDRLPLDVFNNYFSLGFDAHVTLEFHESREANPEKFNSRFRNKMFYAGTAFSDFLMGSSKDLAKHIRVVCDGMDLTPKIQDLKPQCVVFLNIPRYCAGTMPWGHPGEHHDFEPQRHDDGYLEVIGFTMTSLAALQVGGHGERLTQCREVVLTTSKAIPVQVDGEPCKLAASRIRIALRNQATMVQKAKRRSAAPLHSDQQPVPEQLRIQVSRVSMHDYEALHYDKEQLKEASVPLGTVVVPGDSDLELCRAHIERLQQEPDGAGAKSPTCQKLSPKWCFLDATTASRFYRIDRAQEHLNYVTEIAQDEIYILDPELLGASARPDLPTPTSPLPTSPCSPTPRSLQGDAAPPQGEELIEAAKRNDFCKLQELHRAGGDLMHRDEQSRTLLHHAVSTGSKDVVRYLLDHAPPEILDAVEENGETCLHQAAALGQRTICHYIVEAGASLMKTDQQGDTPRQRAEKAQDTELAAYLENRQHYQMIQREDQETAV
Procedure: (§1) Enzymatic reactions of DGKζ, DGKα and DGKδ were performed using ADP-Glo assay with lipid micelle substrate. […] Full length DGKα (D21-10BG, SignalChem) and full length DGKδ (D23-10G, SignalChem) were purchased. Lipid micelle was prepared by dissolving DAG (Sigma, 317505-10MG) and PS (Sigma, P7769-100MG) with chloroform which was firtherly removed by rotary evaporation. The obtained residue was resuspended in buffer containing 25 mM HEPES pH 7.0, 0.5 mM EDTA and 160 mM Octyl β-D glucopyranoside by vigorous mixing and ultrasonic (IID, Scientz).
(§2) The inhibition activities testing for the compound disclosed herein were carried out at room temperature in assay buffer containing 50 mM HEPES, 10 mM MgCl2, 0.01% BSA, 0.1 mM Na3VO4, 0.005% Tween-20 and 0.01 mM CaCl2. Compounds in DMSO were dispensed into wells of a black 384 well plate (Corning 4514) using D300e digital dispenser (Tecan). The ranges of compounds final concentration were 1.55˜10000 nM or 23.3˜150000 nM. 3 μL 2× enzyme solution was added to wells. […] After 1 hour reaction, 5 μL ADP-Glo reagent (Promga V9101) was added and incubated for 40 minutes. 10 μL Kinase Detection reagent was added and incubated for 30 minutes. Luminescence was measured on a microplate reader (PHERAstar FSX, BMG labtech). The IC50s are calculated based on inhibition of enzyme activity in the presence of increasing concentrations of compounds.
Human His-TEV-DGK-zeta-pFastBac1 and human baculovirus samples was generated using the Bac-to-Bac baculovirus expression system (Invitrogen) according to the manufacturer's protocol. The DNA used for expression of DGK-zeta, have SEQ ID Nos: 1. Baculovirus amplification was achieved using infected SF9 cells at 1:2000 virus/cells ratios, and grown for 96 hours at 27° C. post-transfected.
The expression scaled up for each protein was carried out in the […] from CORNING. 4 L of 3×10^6 cells/mL Sf9 cells (Expression System, Invitrogen) grown in SF900™ II SFM insect medium (Expression System) was infected with virus stock at 1:200 virus/cells ratio, and grown for 48 hours at 27° C. post-transfection. The infected cell culture was harvested by centrifugation at 6000 rpm for 15 min 4° C. in a SORVALL LYNX6000 centrifuge. The cell pellets were stored at −80° C.
Full length human DGKζ produced as described above, was purified from Sf9 baculovirus-infected insect cell paste. The cells were lysed using sonication method, and the lysates were clarified by centrifugation.

[2] = biological target: T2, Full length DGKα (D21-10BG, SignalChem) (Homo sapiens, UniProt P23743); assay: Biochemical DGK IC50 assay (ADP-Glo, lipid micelle substrate), DGKα; settings: 7.5 nM enzyme, 140 μM ATP, 80 μM DAG, 1 hour preincubation, 1 hour reaction, room temperature, read-out: IC50s for DGKα
T2 construct: Full length DGKα (D21-10BG, SignalChem); purchased SignalChem D21-10BG
T2 sequence (P23743 whole entry): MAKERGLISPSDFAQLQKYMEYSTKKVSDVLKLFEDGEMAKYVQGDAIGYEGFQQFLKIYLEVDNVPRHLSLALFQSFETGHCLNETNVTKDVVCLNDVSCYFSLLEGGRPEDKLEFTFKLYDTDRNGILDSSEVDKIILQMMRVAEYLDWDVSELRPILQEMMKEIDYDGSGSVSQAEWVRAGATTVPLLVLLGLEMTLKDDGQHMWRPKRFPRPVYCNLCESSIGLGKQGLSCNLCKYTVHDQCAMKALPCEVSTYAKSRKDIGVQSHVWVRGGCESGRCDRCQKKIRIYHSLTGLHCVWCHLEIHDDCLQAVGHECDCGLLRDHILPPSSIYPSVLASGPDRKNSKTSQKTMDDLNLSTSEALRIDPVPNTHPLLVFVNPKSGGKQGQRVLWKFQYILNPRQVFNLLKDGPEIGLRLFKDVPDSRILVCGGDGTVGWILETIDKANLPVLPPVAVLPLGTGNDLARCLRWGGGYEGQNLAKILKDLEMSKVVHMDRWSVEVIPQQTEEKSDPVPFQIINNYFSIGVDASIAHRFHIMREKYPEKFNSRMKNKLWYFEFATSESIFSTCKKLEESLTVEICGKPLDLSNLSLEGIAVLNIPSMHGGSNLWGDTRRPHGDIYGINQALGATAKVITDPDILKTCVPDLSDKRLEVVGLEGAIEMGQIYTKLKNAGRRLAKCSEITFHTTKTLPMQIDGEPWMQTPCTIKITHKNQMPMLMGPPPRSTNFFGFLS
Procedure: as §1, §2

IC50 [1]	IC50 [2]	SMILES
73 nM	155 nM	CC[C@H]1CN(C(C)c2ccc(C(F)(F)F)cc2)[C@H](CC)CN1c1cc(=O)n(C)n2cc(CC#N)nc12 (single isomer, unassigned) [Compound A91a]
2390 nM	131 nM	CC[C@H]1CN(C(C)c2ccc3nc(C)sc3c2)[C@H](CC)CN1c1cc(=O)n(C)n2cc(C=NOC)nc12 (single isomer, unassigned) [Compound A123bc]
4890 nM	269 nM	CC[C@H]1CN(C(C)c2ccc3nc(C)sc3c2)[C@H](CC)CN1c1cc(=O)n(C)n2cc(C=NOC)nc12 (single isomer, unassigned) [Compound A123a]
1110 nM	2360 nM	CCc1nc2ccc(C(C)N3C[C@H](C)N(c4cc(=O)n(C)n5cc(CC#N)nc45)C[C@H]3CC)cc2s1 (single isomer, unassigned) [Compound A101b]
> 10000 nM	288 nM	CC#CCc1cn2c(n1)c(N1C[C@@H](CC)N(C(C)c3ccc4nc(C)sc4n3)C[C@@H]1CC)cc(=O)n2C (single isomer, unassigned) [Compound A115a]
1800 nM	1490 nM	CC[C@H]1CN(C(C)c2ccc3nc(C4CC4)sc3n2)[C@H](CC)CN1c1cc(=O)n(C)n2cc(CC#N)nc12 (single isomer, unassigned) [Compound A109a]
25 nM	121 nM	CC[C@H]1CN(C(C)c2ccc(C(C)(F)F)nc2)[C@H](CC)CN1c1cc(=O)n(C)n2cc(CC#N)nc12 (single isomer, unassigned) [Compound A90a]
1020 nM	1530 nM	[2H]C([2H])([2H])C(c1ccc2nc(C)sc2c1)N1C[C@H](CC)N(c2cc(=O)n(C([2H])([2H])[2H])n3cc(CC#N)nc23)C[C@H]1CC (single isomer, unassigned) [Compound A95b]
1050 nM	1300 nM	CC[C@H]1CN(C(C)c2ccc(C3CC3)nc2)[C@H](CC)CN1c1c(C#N)c(=O)n(C)n2cc(CC#N)nc12 (single isomer, unassigned) [Compound A75b]
15 nM	61 nM	CC[C@H]1CN(C(C)c2ccc3nc(CC4CC4)sc3n2)[C@H](CC)CN1c1cc(=O)n(C)n2cc(CC#N)nc12 (single isomer, unassigned) [Compound A110b]
> 10000 nM	2000 nM	CC[C@H]1CN(C(C)c2ccc3nc(C)sc3n2)[C@H](CC)CN1c1cc(=O)n(C)n2cc(C=NOC)nc12 (single isomer, unassigned) [Compound A124a]
132 nM	196 nM	CCC(c1ccc2nc(C)sc2n1)N1C[C@H](CC)N(c2cc(=O)n(C)n3cc(CC#N)nc23)C[C@H]1CC (single isomer, unassigned) [Compound A99a]

More lines, now with the values behind:

SMILES	IC50 [1]	IC50 [2]
CC[C@@H]1CN(c2cc(=O)n(C)n3cc(CC#N)nc23)[C@@H](C)CN1C(C)c1ccc(C2CC2)nc1 (single isomer, unassigned) [Compound A43b]	> 10000 nM	1490 nM
CC[C@H]1CN(C(C)c2ccc(C3CC3(F)F)nc2)[C@H](CC)CN1c1cc(=O)n(C)n2cc(CC#N)nc12 (single isomer, unassigned) [Compound A70a]	244 nM	102 nM
CC[C@@H]1CN(c2cc(=O)n(C)n3cc(CC#N)nc23)[C@@H](C)CN1C(C)c1ccc(C2CC2)nc1 (single isomer, unassigned) [Compound A43a]	202 nM	285 nM
CC[C@@H]1CN(c2cc(=O)n(C)n3cc(C=NOC)nc23)[C@@H](C)CN1C(C)c1ccc2nccnc2c1 (single isomer, unassigned) [Compound A9b]	313 nM	74 nM
CC[C@@H]1CN(c2cc(=O)n(C)n3cc(COC)nc23)[C@@H](C)CN1C(C)c1ccc(C(F)(F)F)cc1F (single isomer, unassigned) [Compound A16b]	> 10000 nM	8460 nM
CC[C@H]1CN(C(C)c2ccc3nccnc3c2)[C@H](CC)CN1c1cc(=O)n(C)n2cc(CC#N)nc12 (single isomer, unassigned) [Compound A14a]	6 nM	217 nM
CC[C@H]1CN(C(C)c2ccc(F)cc2C(F)F)[C@H](CC)CN1c1cc(=O)n(C)n2cc(CC#N)nc12 (stereo partly drawn) [Compound A34, 2-(8-((2S,5R)-4-(1-(2-(difluoromethyl)-4-fluorophenyl)ethyl)-2,5-diethylpiperazin-1-yl)-5-methyl-6-oxo-5,6-dihydroimidazo[1,2-b]pyridazin-2-yl)acetonitrile]	14 nM	3510 nM
CC[C@H]1CN(C(C)c2ccc3nccnc3c2)[C@H](CC)CN1c1cc(=O)n(C)n2cc(COC)nc12 (single isomer, unassigned) [Compound A8b]	1330 nM	5080 nM
CC[C@H]1CN(C(C)c2ccc3scnc3c2)[C@H](CC)CN1c1cc(=O)n(C)n2cc(CC#N)nc12 (single isomer, unassigned) [Compound A65b]	158 nM	157 nM
CC#CCc1cn2c(n1)c(N1C[C@@H](CC)N(C(C)c3ccc4nc(C)sc4c3)C[C@@H]1CC)cc(=O)n2C (single isomer, unassigned) [Compound A68a]	104 nM	26 nM
CC[C@H]1CN(C(C)c2cc3scnc3cc2F)[C@H](CC)CN1c1cc(=O)n(C)n2cc(CC#N)nc12 (single isomer, unassigned) [Compound A59b]	2610 nM	1580 nM
CC[C@H]1CN(C(C)c2ccc(C3CC3)nc2)[C@H](CC)CN1c1c(C#N)c(=O)n(C)n2cc(CC#N)nc12 (single isomer, unassigned) [Compound A75a]	276 nM	420 nM
Cc1cnc2ccc(C(C)N3C[C@H](C)N(c4cc(=O)n(C)n5cc(CC#N)nc45)C[C@H]3C)cc2n1 (single isomer, unassigned) [Compound A2a]	7400 nM	26800 nM
CC[C@H]1CN(C(C)c2ccc3scnc3c2)[C@H](CC)CN1c1cc(=O)n(C)n2cc(CC#N)nc12 (stereo partly drawn) [Compound A65, 2-(8-((2S,5R)-4-(1-(benzo[d]thiazol-5-yl)ethyl)-2,5-diethylpiperazin-1-yl)-5-methyl-6-oxo-5,6-dihydroimidazo[1,2-b]pyridazin-2-yl)acetonitrile]	18 nM	36 nM
CC[C@@H]1CN(c2c(C#N)c(=O)n(C)n3cc(CC#N)nc23)[C@@H](C)CN1C(C)c1ccc(C2CC2)nc1 (single isomer, unassigned) [Compound A74a]	166 nM	682 nM
CC(c1ccc2c(c1)OC(C)(C)CO2)N1C[C@H](C)N(c2c(F)c(=O)n(C)n3cc(CC#N)nc23)C[C@H]1C (single isomer, unassigned) [Compound A26a]	19 nM	2890 nM
CC[C@H]1CN(C(C)c2ccc3ncsc3c2F)[C@H](CC)CN1c1cc(=O)n(C)n2cc(CC#N)nc12 (single isomer, unassigned) [Compound A62a]	8.5 nM	105 nM
CC[C@H]1CN(C(C)c2ccc3nccnc3c2)[C@H](CC)CN1c1cc(=O)[nH]n2cc(CC#N)nc12 (stereo partly drawn) [Compound A15, 2-(8-((2S,5R)-2,5-diethyl-4-(1-(quinoxalin-6-yl)ethyl)piperazin-1-yl)-6-oxo-5,6-dihydroimidazo[1,2-b]pyridazin-2-yl)acetonitrile]	3870 nM	4380 nM
Cc1cnc2ccc(C(C)N3C[C@H](C)N(c4c(F)c(=O)n(C)n5cc(CC#N)nc45)C[C@H]3C)cc2n1 (stereo partly drawn) [Compound A22, 2-(8-((2S,5R)-2,5-dimethyl-4-(1-(3-methylquinoxalin-6-yl)ethyl)piperazin-1-yl)-7-fluoro-5-methyl-6-oxo-5,6-dihydroimidazo[1,2-b]pyridazin-2-yl)acetonitrile]	95 nM	10800 nM
CC[C@H]1CN(C(C)c2ccc(C3CC3)nc2F)[C@H](CC)CN1c1cc(=O)n(C)n2cc(CC#N)nc12 (single isomer, unassigned) [Compound A42b]	1250 nM	1060 nM
